For assay [1], the target named is metalloprotease LF (lethal factor) (Bacillus anthracis, UniProt P15917). The assay can be described thus: biochemical.
Assay [2] concerns the target Akt1 (Homo sapiens, UniProt P31749). As to the kind of experiment: Selectivity profile: Akt1. The assay is classed as biochemical.
Assay [3] can be described thus: Insulin tolerance test in insulin insensitive db/db mice. It counts as in vivo. The following applies: 25 mg/kg i.p. once, 30 minutes prior to insulin injection.

pIC50: −log10 of the molar value.

Sequence of metalloprotease LF (lethal factor) (P15917 34-809 limits assumed): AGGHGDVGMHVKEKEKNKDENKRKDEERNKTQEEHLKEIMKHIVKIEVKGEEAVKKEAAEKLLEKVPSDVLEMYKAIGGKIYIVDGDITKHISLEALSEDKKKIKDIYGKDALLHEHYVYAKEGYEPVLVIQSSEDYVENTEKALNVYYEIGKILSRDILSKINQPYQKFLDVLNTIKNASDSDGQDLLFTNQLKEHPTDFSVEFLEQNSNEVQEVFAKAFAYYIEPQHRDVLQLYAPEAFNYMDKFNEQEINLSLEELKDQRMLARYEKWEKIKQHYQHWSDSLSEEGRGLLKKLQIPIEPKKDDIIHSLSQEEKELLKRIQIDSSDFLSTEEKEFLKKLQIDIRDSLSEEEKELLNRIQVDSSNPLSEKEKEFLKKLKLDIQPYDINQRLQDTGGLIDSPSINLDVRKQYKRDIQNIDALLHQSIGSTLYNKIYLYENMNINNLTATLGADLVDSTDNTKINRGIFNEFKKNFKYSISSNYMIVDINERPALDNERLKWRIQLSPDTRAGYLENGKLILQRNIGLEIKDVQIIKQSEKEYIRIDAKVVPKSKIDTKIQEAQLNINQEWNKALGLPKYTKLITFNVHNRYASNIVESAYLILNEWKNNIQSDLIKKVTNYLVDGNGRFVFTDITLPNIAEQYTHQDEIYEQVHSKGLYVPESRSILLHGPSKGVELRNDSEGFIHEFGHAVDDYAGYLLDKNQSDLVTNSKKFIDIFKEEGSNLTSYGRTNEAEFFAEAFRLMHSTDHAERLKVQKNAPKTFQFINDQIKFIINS
Sequence of Akt1 (P31749 whole entry, species assumed): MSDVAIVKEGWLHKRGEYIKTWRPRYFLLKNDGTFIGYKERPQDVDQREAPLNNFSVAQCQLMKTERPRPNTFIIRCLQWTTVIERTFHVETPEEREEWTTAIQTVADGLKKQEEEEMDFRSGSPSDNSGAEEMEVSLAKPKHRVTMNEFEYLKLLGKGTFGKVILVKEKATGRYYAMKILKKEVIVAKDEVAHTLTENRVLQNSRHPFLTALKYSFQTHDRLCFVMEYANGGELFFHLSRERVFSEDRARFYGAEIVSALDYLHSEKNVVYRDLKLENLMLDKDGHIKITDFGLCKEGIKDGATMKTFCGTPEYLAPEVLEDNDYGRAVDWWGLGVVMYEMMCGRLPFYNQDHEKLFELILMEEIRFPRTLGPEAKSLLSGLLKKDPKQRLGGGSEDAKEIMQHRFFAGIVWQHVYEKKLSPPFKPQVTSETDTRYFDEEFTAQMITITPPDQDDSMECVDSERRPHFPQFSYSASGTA

For the compound `O=c1[nH]nc(Sc2ncc([N+](=O)[O-])s2)n1-c1ccc([N+](=O)[O-])cc1` [Compound 3j, 4-(4-nitrophenyl)-5-(5-nitrothiazol-2-ylthio)-4H-1,2,4-triazol-3-ol], the pIC50 in assay [1] is less than 4.00.

In turn, `Cn1cccc1-c1nnc(Sc2ncc([N+](=O)[O-])s2)n1-c1ccc(Cl)cc1Cl` [Compound 7b, 2-(4-(2,4-dichlorophenyl)-5-(1-methyl-1H-pyrrol-2-yl)-4H-1,2,4-triazol-3-ylthio)-5-nitrothiazole] gave a pIC50 in assay [1] of less than 4.00.

Consider `O=[N+]([O-])c1cnc(Sc2nnc(Sc3ncc([N+](=O)[O-])s3)s2)s1` [Compound 8f, 2,5-bis(5-nitrothiazol-2-ylthio)-1,3,4-thiadiazole], for which, in assay [1], the pIC50 was less than 4.00.

Turning to `Nc1nnc(Sc2ncc([N+](=O)[O-])s2)s1` [Compound 9, 5-(5-nitrothiazol-2-ylthio)-1,3,4-thiadiazol-2-amine], in assay [2], the “activity against Akt kinase” value was “completely inactive”. Besides, in assay [1], the pIC50 was less than 4.00. Further, the “effect of insulin on blood glucose levels compared to the vehicle control” value in assay [3] is recorded as “statistically significant reduction in blood glucose levels”.

As usually defined, the pIC50 is the IC50 on a negative log10 scale, so that one unit is a factor of ten. Low readings indicate a large IC50, high ones a small IC50.

Values taken from PMC2667321 (Journal of medicinal chemistry, 2009).
